In experiment [1] the test system is Candida albicans. The experiment is described as follows: Antifungal activity against Candida albicans at 0.5 ug/disk by agar disk diffusion assay. To be noted: read-out: IZ. The class given is functional.
Experiment [2] relates to Candida albicans. The experiment is described as follows: Antifungal activity against Candida albicans by agar disk diffusion assay. The class given is functional, organism-based.
Experiment [3] deals with Candida albicans. Description: Antifungal activity against Candida albicans at 10 ug in presence of 20 ppm exogenous ergosterol. The format is functional.
Experiment [4] deals with Candida albicans. The experiment is described as follows: Antifungal activity against Candida albicans in presence of 100 ppm exogenous ergosterol by agar disk diffusion assay. The class given is functional, organism-based.

The source made the active and inactive calls. The calls are words filed in the database; no cut-off is given here.

For `CCCCCCCCCCCCCCC(=O)O[C@@H](c1cnco1)c1nc([C@@H](O)C[C@@H](O)[C@@H](O)[C@@H](C)O)co1` [BENGAZOLE E], in the experiment on Candida albicans [1], the zone of inhibition at 0.5 µg/disc amounted to 9 mm.

`CC(C)CCCCCCCCCCC(=O)O[C@@H](c1cnco1)c1nc([C@@H](O)C[C@@H](O)[C@@H](O)[C@@H](C)O)co1` [BENGAZOLE D]: the zone of inhibition at 0.5 µg/disc with Candida albicans [1] amounted to 9 mm.

For `CCC(C)CCCCCCCCCCCC(=O)O[C@@H](c1cnco1)c1nc([C@@H](O)C[C@@H](O)[C@@H](O)[C@@H](C)O)co1` (stereo partly specified) [BENGAZOLE F], the zone of inhibition at 0.5 µg/disc in the experiment with Candida albicans [1] stood at 9 mm.

On to `COC(=O)[C@H](C)[C@@H]1CC[C@](C)([C@@H]2C[C@@]3(C)[C@H](C)C[C@H]4C=C(C)CC[C@H]4[C@@]3(C)O2)OO1`, for which, in the experiment on Candida albicans [2], the result was inactive.

With `CCCCCCCCCCCCCC(=O)O[C@@H](c1cnco1)c1nc([C@@H](O)C[C@@H](O)[C@@H](O)[C@@H](C)O)co1` [BENGAZOLE A], in the experiment on Candida albicans [1], the zone of inhibition at 0.5 µg/disc worked out at 9 mm.

As to `CCCCCCCCCCCCC(=O)O[C@@H](c1cnco1)c1nc([C@@H](O)C[C@@H](O)[C@@H](O)[C@@H](C)O)co1` [BENGAZOLE C], in the experiment on Candida albicans [1], the zone of inhibition at 0.5 µg/disc was determined as 9 mm.

With `CCC(C)CCCCCCCCCCC(=O)O[C@@H](c1cnco1)c1nc([C@H](O)C[C@@H](O)[C@@H](O)[C@@H](C)O)co1` (stereo partly specified) [BENGAZOLE B1], the zone of inhibition at 0.5 µg/disc with Candida albicans [1] was 9 mm.

With `CC(C)CCCCCCCCCCCC(=O)O[C@@H](c1cnco1)c1nc([C@@H](O)C[C@@H](O)[C@@H](O)[C@@H](C)O)co1` [BENGAZOLE B], the Activity with Candida albicans [3] was 50%. The zone of inhibition at 0.5 µg/disc in the experiment on Candida albicans [1] amounted to 9 mm.

Take `CC1=C[C@@H]2C[C@@H](C)[C@]3(C)C[C@@H]([C@@]4(C)CC[C@@H]([C@@H](C)C(=O)O)OO4)O[C@]3(C)[C@@H]2CC1`: the result with Candida albicans [4] was Active.

In the case of `CCCCCCCCCCCCCCCC(=O)O[C@@H](c1cnco1)c1nc([C@@H](O)C[C@@H](O)[C@@H](O)[C@@H](C)O)co1` [BENGAZOLE G], the zone of inhibition at 0.5 µg/disc in the experiment on Candida albicans [1] turned out to be 9 mm.

For the origin of these results see ChEMBL document CHEMBL1147327, “Developments in marine natural products. Receptor-specific bioactive compounds” (1993).
